From patent US20230257372A1 (CHONG KUN DANG PHARMACEUTICAL CORP., priority 2020, published 2023)
Like-named read-outs stand apart in the source and are kept apart here.

Assays:
human recombinant HDAC6 = target: T1, human recombinant HDAC6 (Homo sapiens, UniProt Q9UBN7); test: HDAC6 enzyme activity inhibition (HDAC Fluorimetric Drug Discovery Kit); format: biochemical
T1 construct: purchased Calbiochem Inc. 382180
T1 sequence (Q9UBN7 1-1215): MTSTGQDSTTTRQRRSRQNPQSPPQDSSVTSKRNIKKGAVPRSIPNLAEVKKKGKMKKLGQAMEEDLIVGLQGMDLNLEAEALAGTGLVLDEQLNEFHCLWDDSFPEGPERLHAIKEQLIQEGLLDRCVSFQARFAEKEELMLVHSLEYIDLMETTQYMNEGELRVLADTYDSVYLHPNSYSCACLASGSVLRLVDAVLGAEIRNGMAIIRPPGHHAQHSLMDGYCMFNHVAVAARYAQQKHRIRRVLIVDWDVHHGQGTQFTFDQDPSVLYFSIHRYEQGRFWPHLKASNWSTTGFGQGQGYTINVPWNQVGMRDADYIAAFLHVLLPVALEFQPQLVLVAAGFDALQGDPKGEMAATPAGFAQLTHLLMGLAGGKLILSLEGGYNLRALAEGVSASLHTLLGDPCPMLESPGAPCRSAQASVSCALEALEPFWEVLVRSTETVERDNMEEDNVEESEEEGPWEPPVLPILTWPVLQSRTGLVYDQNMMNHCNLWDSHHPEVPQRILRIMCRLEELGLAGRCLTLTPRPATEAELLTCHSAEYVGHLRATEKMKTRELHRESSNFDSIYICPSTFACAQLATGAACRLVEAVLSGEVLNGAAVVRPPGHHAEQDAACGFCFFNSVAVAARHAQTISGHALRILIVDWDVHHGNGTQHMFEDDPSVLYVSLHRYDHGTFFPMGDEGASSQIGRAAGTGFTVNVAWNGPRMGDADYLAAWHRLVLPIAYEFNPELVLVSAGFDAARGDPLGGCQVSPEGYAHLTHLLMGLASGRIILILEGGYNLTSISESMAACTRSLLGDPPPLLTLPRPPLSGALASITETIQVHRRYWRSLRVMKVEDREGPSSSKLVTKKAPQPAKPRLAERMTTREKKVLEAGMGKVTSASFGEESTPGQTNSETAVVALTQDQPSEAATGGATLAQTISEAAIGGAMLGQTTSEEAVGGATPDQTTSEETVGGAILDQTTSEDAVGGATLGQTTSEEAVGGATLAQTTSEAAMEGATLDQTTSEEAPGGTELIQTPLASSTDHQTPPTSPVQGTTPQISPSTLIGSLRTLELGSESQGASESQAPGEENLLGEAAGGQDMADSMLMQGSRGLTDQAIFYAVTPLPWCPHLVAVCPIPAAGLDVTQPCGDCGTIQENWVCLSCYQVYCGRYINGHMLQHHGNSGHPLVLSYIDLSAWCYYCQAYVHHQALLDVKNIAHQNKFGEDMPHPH
Method in brief: (§1)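 Five-fold compound dilutions incubated with […] recombinant enzyme and 10 μM fluorogenic Fluor de Lys substrate, 60 min at 30° C. Fluor de Lys Developer II then added for 30 min to generate the fluorescent read-out.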

human recombinant HDAC1 = target: T2, human recombinant HDAC1 (Homo sapiens, UniProt Q13547); test: HDAC1 enzyme activity inhibition (HDAC Fluorimetric Drug Discovery Kit); format: biochemical; conditions: read-out: HDAC1
T2 construct: purchased Enzo Life Science, Inc. BML-SE456
T2 sequence (Q13547 whole entry): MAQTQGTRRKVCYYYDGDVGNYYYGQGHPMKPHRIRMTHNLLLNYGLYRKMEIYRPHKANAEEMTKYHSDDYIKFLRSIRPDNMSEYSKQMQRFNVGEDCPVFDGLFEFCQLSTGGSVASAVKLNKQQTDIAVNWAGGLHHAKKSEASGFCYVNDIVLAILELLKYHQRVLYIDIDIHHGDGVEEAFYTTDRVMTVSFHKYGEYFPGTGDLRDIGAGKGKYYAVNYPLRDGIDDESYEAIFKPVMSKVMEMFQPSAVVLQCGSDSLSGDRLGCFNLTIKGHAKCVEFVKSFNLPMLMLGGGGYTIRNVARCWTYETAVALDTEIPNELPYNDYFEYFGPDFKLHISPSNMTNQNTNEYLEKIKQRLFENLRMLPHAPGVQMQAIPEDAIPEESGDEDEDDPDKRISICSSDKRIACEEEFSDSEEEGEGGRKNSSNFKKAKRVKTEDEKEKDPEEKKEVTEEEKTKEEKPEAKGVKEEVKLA
Method in brief: as §1

[1] = human recombinant HDAC6, IC50 calculated with GraphPad Prism
[2] = human recombinant HDAC1, IC50 calculated with GraphPad Prism
[3] = human recombinant HDAC6, same protocol as HDAC1
[4] = human recombinant HDAC1, Fluor de Lys substrate, 30° C. 60 minutes

Row | Structure (SMILES) | HDAC6 selectivity (fold) (human recombinant HDAC6; HDAC1 IC50 / HDAC6 IC50) | IC50 (human recombinant HDAC6; [1]) [nM] | IC50 (human recombinant HDAC1; [2]) [nM] | HDAC6 selectivity (fold) (human recombinant HDAC6; HDAC6 over HDAC1) | IC50 (human recombinant HDAC6; [3]) [nM] | IC50 (human recombinant HDAC1; [4]) [nM]
1 | CC(=O)N1CC(c2cn(Cc3ccc(-c4nnc(C(F)F)o4)cn3)nn2)C1 [Compound 3956, 1-(3-(1-((5-(5-(difluoromethyl)-1,3,4-oxadiazol-2-yl)pyridin-2-yl)methyl)-1H-1,2,3-triazol-4-yl)azetidin-1-yl)ethan-1-one] | 93 | 536 | > 50000 |  |  | 
2 | CN1CCN(c2ccc(F)c(-c3cn(Cc4ccc(-c5nnc(C(F)F)o5)cc4)nn3)c2)CC1 [Compound 4451, 2-(difluoromethyl)-5-(4-((4-(2-fluoro-5-(4-methylpiperazin-1-yl)phenyl)-1H-1,2,3-triazol-1-yl)methyl)phenyl)-1,3,4-oxadiazole] | 1976 | 16.8 | > 50000 |  |  | 
3 | CN1CC(NCc2ccc(-c3cn(Cc4ccc(-c5nnc(C(F)F)o5)cc4F)nn3)cc2)C1 [Compound 4470, N-(4-(1-(4-(5-(difluoromethyl)-1,3,4-oxadiazol-2-yl)-2-fluorobenzyl)-1H-1,2,3-triazol-4-yl)benzyl)-1-methylazetidin-3-amine] | 915 | 54.6 | > 50000 |  |  | 
4 | COC(=O)N1CCC[C@H]1c1cn(Cc2ccc(-c3nnc(C(F)F)o3)cn2)nn1 [Compound 4028, methyl (S)-2-(1-((5-(5-(difluoromethyl)-1,3,4-oxadiazol-2-yl)pyridin-2-yl)methyl)-1H-1,2,3-triazol-4-yl)pyrrolidin-1-carboxylate] | 238 | 210 | > 50000 |  |  | 
5 | CCN1CCN(Cc2ccc(-c3cn(Cc4ccc(-c5nnc(C(F)F)o5)cc4)nn3)cc2)CC1 [Compound 4553, 2-(difluoromethyl)-5-(4-((4-(4-((4-ethylpiperazin-1-yl)methyl)phenyl)-1H-1,2,3-triazol-1-yl)methyl)phenyl)-1,3,4-oxadiazole] |  |  |  | 986 | 50.7 | > 50000
6 | FC(F)c1nnc(-c2ccc(Cn3cc(-c4ccc(CNC5CCC5)cc4)nn3)cc2)o1 [Compound 4555, N-(4-(1-(4-(5-(difluoromethyl)-1,3,4-oxadiazol-2-yl)benzyl)-1H-1,2,3-triazol-4-yl)benzyl)cyclobutanamine] |  |  |  | 2100 | 23.8 | > 50000
7 | CN(C)C1CCN(Cc2ccc(-c3cn(Cc4ccc(-c5nnc(C(F)F)o5)cn4)nn3)cc2)CC1 [Compound 4564, 1-(4-(1-((5-(5-(difluoromethyl)-1,3,4-oxadiazol-2-yl)pyridin-2-yl)methyl)-1H-1,2,3-triazol-4-yl)benzyl)-N,N-dimethylpiperidin-4-amine] |  |  |  | 2358 | 21.2 | > 50000
8 | Fc1cc(-c2nnc(C(F)F)o2)ccc1Cn1cc(-c2ccc(CNC3CCC3)cc2)nn1 [Compound 4468, N-(4-(1-(4-(5-(difluoromethyl)-1,3,4-oxadiazol-2-yl)-2-fluorobenzyl)-1H-1,2,3-triazol-4-yl)benzyl)cyclobutanamine] | 370 | 13.5 | > 50000 |  |  | 
9 | FC(F)c1nnc(-c2ccc(Cn3cc(-c4ccccc4N4CCOCC4)nn3)nc2)o1 [Compound 4104, 4-(2-(1-((5-(5-(difluoromethyl)-1,3,4-oxadiazol-2-yl)pyridin-2-yl)methyl)-1H-1,2,3-triazol-4-yl)phenyl)morpholin] | 500 | 66 | 33000 |  |  | 
10 | CN(C)Cc1ccc(-c2cn(Cc3ccc(-c4nnc(C(F)F)o4)cc3F)nn2)cc1Cl [Compound 18711, 1-(2-chloro-4-(1-(4-(5-(difluoromethyl)-1,3,4-oxadiazol-2-yl)-2-fluorobenzyl)-1H-1,2,3-triazol-4-yl)phenyl)-N,N-dimethylmethanamine] |  |  |  | 524 | 95.4 | > 50000
11 | Fc1cc(-c2nnc(C(F)F)o2)ccc1Cn1cc(-c2ccc(CN3CC[C@@H](F)C3)s2)nn1 [Compound 17917] |  |  |  | 881 | 56.7 | > 50000
12 | CC(C)(C)OC(=O)N1CCC(c2cn(Cc3ccc(-c4nnc(C(F)F)o4)cn3)nn2)CC1 [Compound 3805, tert-butyl 4-(1-((5-(5-(difluoromethyl)-1,3,4-oxadiazol-2-yl)pyridin-2-yl)methyl)-1H-1,2,3-triazol-4-yl)piperidin-1-carboxylate] | 844 | 59.2 | > 50000 |  |  | 
13 | FC(F)c1nnc(-c2ccc(Cn3cc(-c4cccc(N5C[C@@H]6C[C@H]5CN6)c4)nn3)cc2)o1 [Compound 4317, 2-(4-((4-(3-((1S,4S)-2,5-diazabicyclo[2.2.1]heptan-2-yl)phenyl)-1H-1,2,3-triazol-1-yl)methyl)phenyl)-5-(difluoromethyl)-1,3,4-oxadiazole] | 598 | 83.6 | > 50000 |  |  | 
14 | Fc1cc(-c2cn(Cc3ncc(-c4nnc(C(F)F)o4)cc3F)nn2)ccc1CN1CCCC1 [Compound 18948, 2-(difluoromethyl)-5-(5-fluoro-6-((4-(3-fluoro-4-(pyrrolidin-1-ylmethyl)phenyl)-1H-1,2,3-triazol-1-yl)methyl)pyridin-3-yl)-1,3,4-oxadiazole] |  |  |  | 856 | 58.4 | > 50000
15 | CN1CCN(Cc2ccc(-c3cn(Cc4ccc(-c5nnc(C(F)F)o5)cn4)nn3)cc2)CC1 [Compound 4562, 2-(difluoromethyl)-5-(6-((4-(4-((4-methylpiperazin-1-yl)methyl)phenyl)-1H-1,2,3-triazol-1-yl)methyl)pyridin-3-yl)-1,3,4-oxadiazole] |  |  |  | 2083 | 24 | > 50000
16 | CCN1CCN(c2ccc(F)c(-c3cn(Cc4ccc(-c5nnc(C(F)F)o5)cc4)nn3)c2)CC1 [Compound 4452, 2-(difluoromethyl)-5-(4-((4-(5-(4-ethylpiperazin-1-yl)-2-fluorophenyl)-1H-1,2,3-triazol-1-yl)methyl)phenyl)-1,3,4-oxadiazole] | 2463 | 20.3 | > 50000 |  |  | 
17 | FC(F)(F)c1nnc(-c2ccc(Cn3nnc(-c4cccs4)n3)nc2)o1 [Compound 4233] | 3846 | 13 | > 50000 |  |  | 
18 | Fc1cc(-c2nnc(C(F)F)o2)ccc1Cn1cc(-c2ccc(CNC3CCCC3)cc2)nn1 [Compound 4609, N-(4-(1-(4-(5-(difluoromethyl)-1,3,4-oxadiazol-2-yl)-2-fluorobenzyl)-1H-1,2,3-triazol-4-yl)benzyl)cyclopentanamine] |  |  |  | 3164 | 15.8 | > 50000
19 | Fc1cc(-c2nnc(C(F)F)o2)ccc1Cn1cc(-c2ccc(CN3CCC3)nc2)nn1 [Compound 18174, 2-(4-((4-(6-(azetidin-1-ylmethyl)pyridin-3-yl)-1H-1,2,3-triazol-1-yl)methyl)-3-fluorophenyl)-5-(difluoromethyl)-1,3,4-oxadiazole] |  |  |  | 980 | 51 | > 50000
20 | Fc1cc(-c2nnc(C(F)F)o2)ccc1Cn1cc(-c2cccc(CN3CCC(F)(F)CC3)c2)nn1 [Compound 4405, 2-(difluoromethyl)-5-(4-((4-(3-((4,4-difluoropiperidin-1-yl)methyl)phenyl)-1H-1,2,3-triazol-1-yl)methyl)-3-fluorophenyl)-1,3,4-oxadiazole] | 794 | 62.9 | > 50000 |  |  | 
